# According to patent US20050244490A1, “Dosing methods for beta-D-2',3'-dideoxy-2',3'-didehydro-5-fluorocytidine antiviral therapy” (priority 2003, published 2005):
# Assays:
# [1] = tested on: AZT/3TC-resistant HIV-1 recombinant viruses; assay: microbe, parasite or virus in culture; format: cell-based; settings: Human immunodeficiency virus 1, read-out: Average IC90 for AZT/3TC-R virus
# Procedure: A panel of 22 viruses was constructed in the HXB2 background using the Protease and RT sequences from clinical isolates to determine Virco Profiling against recombinant clinical isolates (see FIGS. 7a and 7b). Viruses contained 2 to 17 mutations in RT frequently associated with nucleoside resistance, including: M184V, M41L, D67N, T215Y. IC50 values were determined using a high through-put reporter virus assay.
# wild type HIV-RT = molecular target: T1, wild type HIV-RT (Human immunodeficiency virus type 1 group M subtype B, UniProt P04585); assay: Ki / Km for wild type HIV-RT; format: biochemical, HIV-1
# T1 construct: The Ki value for β-D-D4FC-TP for wild type HIV-RT
# [2] = pbmc
# [3] = human, in vivo
# [4] = Comparison to other nucleosides: plasma pharmacokinetics
# clinical = settings: in vivo
# [5] = tested on: acutely HIV-1 infected human PBM cells; assay: Median effect / combination index study with Racivir; format: cell-based; settings: Human immunodeficiency virus 1, PBMC, 120 h, Day 5, assays (1), (2), (3)
smiles,measurement,setting,value
"O=c1[nH]cnc2c1ncn2[C@H]1CC[C@@H](CO)O1 [DDI, 2′,3′-dideoxyinosine]",IC90,[1],12600 nM
same,Ki,wild type HIV-RT,80 to 8000 nM
same,Intracellular half life,[2],25 to 40 h
same,Intracellular [Nuc-PPP] in patients,[3],<0.5 µM
same,half-life,[4],1.5 h
same,Cmax,clinical,4.2 µM
same,EC50,[5]; read-out: EC50,380 nM
same,EC90,[5]; read-out: EC90,2200 nM
